Literature values in patent US7887848B2, “Nutraceutical treatments for diabetic and non-diabetic wound healing” (Interhealth Nutraceuticals, Inc., priority 2006, dated 2011).

OO [H2O2]
beneficial effect on wounds (H2O2 at strength of 3%): no beneficial effect
dermal wound healing (topical H2O2 (Roy et al. 2006)): facilitates dermal wound healing
